Measurements published in patent US20230072949A1, “NANOMATERIALS FOR TARGETED TREATMENT AND IMAGING OF ANEURYSMAL MICROENVIRONMENT” (The University of North Carolina at Chapel Hill, priority 2020, published 2023).
Where a SMILES comes first, the peptide text is derived from it. Where no end group is shown, it is not given here. The star is where a group is joined. Palmitoyl = CCCCCCCCCCCCCCCC(=O)*; Lauroyl = CCCCCCCCCCCC(=O)*; C16 = C16 lipid tail

What was measured:
[1] = tested on: aneurysmal aorta (CaCl2-induced AAA of the infrarenal aorta); assay: Targeting of PA nanomaterials to aneurysmal tissue in CaCl2-induced AAA rats (LSFM / fluorescence microscopy after intravenous injection); assay type: in vivo, Sprague Dawley rats; conditions: for targeting to the rat aorta (LSFM images): 2 hours post PA injection (FIG. 8A); for Targeting Capability: Table 1, aneurysm targeting
Text: We also validated the CaCl2 model, by inducing aneurysms in 10 male and 7 female Sprague Dawley rats. We measured aortic diameter before AAA induction and then at days 14, 21, and 28 after induction using ultrasound. At day 35, we performed an endpoint surgery and measured the diameter of the aorta, perfusion-fixed the rats, and collected tissue. Tissue was cryo-sectioned and assayed for elastin (Verhoeff-Van Gieson (VVG)), calcium (Von Kossa), and MMP-2 (IF) staining. […] There was no significant difference between male and female rats in aortic dilation (data not shown). Further, we found both elastin fragmentation, and robust MMP-2 protein staining in the aortas exposed to CaCl2, with negligible amounts of fragmentation and MMP-2 in the suprarenal aortas from the same animals (FIG. 2 C+F). Fragmentation of elastin and MMP-2 corresponded to regions of the aorta that were calcified (FIG. 2E).
To evaluate the targeting specificity of the targeted PA nanomaterials, we induced AAA in the infrarenal aorta of Sprague Dawley rats by exposure to CaCl2. After 35 days, a period consistent with aneurysm formation, the targeted PA nanomaterials was injected intravenously. We assessed targeting specificity and duration to aneurysmal sites as well as to all vital organs. We also determined optimal concentration, dose, and co-assembly ratios. Controls included rats injected with saline alone, non-targeted PA nanomaterials, and PA nanomaterials bearing a scrambled targeting sequence.
Experimental Design. Dosage and targeting specificity. To evaluate specific localization of targeted PA nanomaterials, AAA is induced in the infrarenal aorta of male and female Sprague Dawley rats by exposure to CaCl2) (FIG. 4 and FIG. 5A). The features of human AAA can be recapitulated in rodent models. Here, we developed and validated a surgical model of AAA, where CaCl2 is applied to the periadventitial surface of the aorta.^4, 18 While no single model perfectly replicates human AAA, similarities between CaCl2-induced AAA and human aneurysms makes this a useful model. […]
Aortic dilation is measured using ultrasound imaging. […]
Targeting specificity of both MMP-2-targeting and elastin-targeting PAs to the aneurysmal aorta, non-aneurysmal suprarenal aorta, and all vital organs is assessed using in vivo imaging system (IVIS), light-sheet fluorescence microscopy (LSFM), and immunofluorescence (IF) microscopy. […] Targeting specificity was determined by measuring pixel count above an assigned threshold. Further, MMP-2 was quantified using IF microscopy and correlated to the amount of MMP-2-targeting PA. […] With this experiment, we confirmed that targeted PA nanomaterials localized to the site of interest and optimal dose for duration studies was determined. […]

[2] = Organ distribution of PA (kidney, liver, lung, spleen, aorta) by LSFM; assay type: in vivo, Sprague Dawley rats; conditions: 2 hours post injection (FIG. 11)
Procedure: (A) Organ distribution of MMP-2 targeting PA 1 in the kidney, liver, lung, spleen, and aorta of Sprague Dawley rats 2 hours post injection. White color represents autofluorescence and red to yellow represents TAMRA-labeled PA. (B) Plotted mean data of the ratio of PA to tissue in each organ.
Targeting specificity of both MMP-2-targeting and elastin-targeting PAs to the aneurysmal aorta, non-aneurysmal suprarenal aorta, and all vital organs is assessed using in vivo imaging system (IVIS), light-sheet fluorescence microscopy (LSFM), and immunofluorescence (IF) microscopy. […] Targeting specificity was determined by measuring pixel count above an assigned threshold. Further, MMP-2 was quantified using IF microscopy and correlated to the amount of MMP-2-targeting PA. When no adverse side effects occurred, the dosage was increased until we achieved saturation of targeting. With this experiment, we confirmed that targeted PA nanomaterials localized to the site of interest and optimal dose for duration studies was determined. Results are shown for 2 hours post PA injection of either 2.5 mg, 5 mg, or 10 mg of MMP-2-targeting PA 1. A higher PA volume to tissue volume ratio is seen in the 5 mg and 10 mg dose than the 2.5 mg dose. The 5 mg dose was selected for further investigation. […]

organ distribution (kidney, liver, lung, spleen, aorta) ([2]; listed as MMP-2-targeting PA 1)	organ distribution (kidney, liver, lung, spleen, aorta) ([2]; listed as MMP-2 targeting PA)	Compound	targeting to the rat aorta (LSFM images) [1]	Targeting Capability [1]
		PLSEWRASYNGGEEAAVVK(C12) (PLSEWRASYNGGEEAAVVK(Lauroyl)) [Fragmented Elastin_PLS, fragmented elastin-targeting peptide amphiphile on E2A2V2K(C12) diluent backbone]	targeting to the rat aorta	Does not target
predominantly localized to the aorta	predominantly localizes to the aorta	CCCCCCCCCCCCCCCC(=O)N[C@H](C(=O)N[C@H](C(=O)N[C@@H](C)C(=O)N[C@@H](C)C(=O)N[C@@H](CCC(=O)O)C(=O)N[C@@H](CCC(=O)O)C(=O)NCC(=O)NCC(=O)N[C@@H](CCCNC(=N)N)C(=O)NCC(=O)N[C@@H](C)C(=O)N[C@@H](C)C(=O)N1CCC[C@H]1C(=O)N1CCC[C@H]1C(=O)N[C@@H](CCCCN)C(=O)N[C@@H](CCC(N)=O)C(=O)N[C@@H](CCC(=O)O)C(=O)N[C@@H](Cc1ccccc1)C(=O)N[C@@H](CC(C)C)C(=O)N[C@@H](CC(=O)O)C(=O)N[C@H](C(=O)N[C@@H](CCC(=O)O)C(=O)O)[C@@H](C)CC)C(C)C)C(C)C [MMP-2_RGA] (Palmitoyl-VVAAEEGGRGAAPPKQEFLDIE-OH; N-terminus and C-terminus assumed)		
		(C16)VVAAEEGGLWMDWVTEKNIN (C16-VVAAEEGGLWMDWVTEKNIN) [MTI-MMP_LWM, MT1-MMP-targeting peptide amphiphile]	targeting to the rat aorta	Targets aneurysm
